From US6538112B2, “Hybridomas and monoclonal antibodies for an anticoagulant test” (Merck & Co., Inc., priority 1997, dated 2003)
“Also recorded” adds a separate entry of the source. Counter-ions that a name gives are not always drawn. Like-named read-outs stand apart in the source and are kept apart here. Bridge positions count the residues as written; N and C are the ends. Ends that are not written are not given here. Peptide text beside a SMILES is read from it. * marks the point of attachment. Benzoyl(4-I) = O=C(c1ccc(I)cc1)*

What was measured:
[1] = biological target: T1, GPIIb/IIIa activation state on gel filtered platelets (Homo sapiens, UniProt P05106+P08514); assay: PAC-1 binding to gel filtered platelets; assay type: cell-based; details: PGE1, PGI2 and apyrase prior to antibody or agonist
T1 construct: Gel filtered platelets (GFP) were prepared from blood anticoagulated with 13 mM trisodium citrate; endogenous in cells; host or cells: gel filtered platelets from citrated blood
T1 sequence (P08514 32-887 limits assumed): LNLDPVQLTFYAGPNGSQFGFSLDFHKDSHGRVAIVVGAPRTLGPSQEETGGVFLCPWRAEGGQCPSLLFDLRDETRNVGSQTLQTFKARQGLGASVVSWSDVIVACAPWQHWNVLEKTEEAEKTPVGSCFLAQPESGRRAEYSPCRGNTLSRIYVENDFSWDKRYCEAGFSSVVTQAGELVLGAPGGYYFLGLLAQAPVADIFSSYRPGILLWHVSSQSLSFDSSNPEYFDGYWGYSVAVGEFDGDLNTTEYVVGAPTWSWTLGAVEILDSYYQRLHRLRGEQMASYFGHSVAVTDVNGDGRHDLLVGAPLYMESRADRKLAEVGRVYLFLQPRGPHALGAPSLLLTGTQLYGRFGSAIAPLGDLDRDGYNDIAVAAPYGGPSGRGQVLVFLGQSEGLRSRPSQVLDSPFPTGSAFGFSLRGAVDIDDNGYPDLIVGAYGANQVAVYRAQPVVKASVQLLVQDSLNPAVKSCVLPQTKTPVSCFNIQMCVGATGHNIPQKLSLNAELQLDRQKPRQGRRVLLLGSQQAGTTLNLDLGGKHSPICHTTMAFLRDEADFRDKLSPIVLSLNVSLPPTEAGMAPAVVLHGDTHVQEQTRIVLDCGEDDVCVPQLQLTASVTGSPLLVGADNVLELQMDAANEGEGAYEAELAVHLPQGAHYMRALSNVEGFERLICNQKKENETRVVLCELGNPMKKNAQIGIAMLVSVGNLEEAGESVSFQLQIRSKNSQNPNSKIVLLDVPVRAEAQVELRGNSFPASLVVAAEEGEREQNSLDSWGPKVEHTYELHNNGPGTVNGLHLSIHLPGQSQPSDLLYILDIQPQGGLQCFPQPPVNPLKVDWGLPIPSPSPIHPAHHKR
T1 sequence (P08514 891-1039 partner limits assumed): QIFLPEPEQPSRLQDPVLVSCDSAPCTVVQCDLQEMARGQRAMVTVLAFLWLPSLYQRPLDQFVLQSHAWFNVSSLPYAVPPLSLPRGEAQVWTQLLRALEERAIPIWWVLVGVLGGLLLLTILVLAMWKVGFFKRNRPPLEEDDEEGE
T1 sequence (P05106 27-788): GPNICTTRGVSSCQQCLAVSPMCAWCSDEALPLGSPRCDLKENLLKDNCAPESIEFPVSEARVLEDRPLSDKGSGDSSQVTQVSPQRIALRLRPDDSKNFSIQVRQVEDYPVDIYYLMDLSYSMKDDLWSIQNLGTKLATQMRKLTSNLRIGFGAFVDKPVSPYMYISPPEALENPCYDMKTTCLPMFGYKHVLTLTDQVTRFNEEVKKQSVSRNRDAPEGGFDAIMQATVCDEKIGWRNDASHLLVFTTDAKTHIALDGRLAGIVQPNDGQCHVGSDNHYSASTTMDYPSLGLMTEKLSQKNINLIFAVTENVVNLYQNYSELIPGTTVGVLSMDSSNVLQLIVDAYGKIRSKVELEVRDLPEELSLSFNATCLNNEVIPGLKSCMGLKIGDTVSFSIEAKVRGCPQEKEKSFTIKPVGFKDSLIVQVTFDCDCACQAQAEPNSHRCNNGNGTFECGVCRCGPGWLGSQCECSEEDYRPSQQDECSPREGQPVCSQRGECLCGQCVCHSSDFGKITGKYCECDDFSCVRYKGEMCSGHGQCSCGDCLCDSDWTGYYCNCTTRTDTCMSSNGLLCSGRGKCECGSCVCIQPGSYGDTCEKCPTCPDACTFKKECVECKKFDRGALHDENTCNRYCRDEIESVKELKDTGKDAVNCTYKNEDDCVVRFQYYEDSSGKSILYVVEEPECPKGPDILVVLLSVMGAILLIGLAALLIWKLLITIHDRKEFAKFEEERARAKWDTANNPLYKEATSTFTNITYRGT
Method: PAC-1 (Shattil et al. (1985) J. Biol. Chem. 260, 11107-11114) binding studies were done using 20 μg/mL FITC conjugated PAC-1 (University of Pennsylvania Cell Center (Philadelphia, Pa.)) diluted in PBS. 25 μL of resting 1×10^8 GFP/mL, in flow cytometry buffer containing 1 mM CaCl, was combined with 100 nM of antibody and FITC conjugated PAC-1 to a final volume of 100 μL. The sample was incubated for 1 hour at room temperature. Following incubation the cells were diluted to 300 μL in flow cytometry buffer immediately before flow cytometry analysis. Contol PAC-1 binding to activated platelets was tested by first activating the receptors with either 1 nM thrombin or 20 μM ADP. Some samples were pretreated with activation inhibitors 100 μM PGE1, 20 μg/ml apyrase (Sigma Chemical Company (St. Louis, Mo.)) and 10 μM PGI2 (BioMol (Plymouth Meeting, Pa.)) prior to antibody addition or platelet activation with ADP or thrombin.

[2] = test system: gel filtered platelets; assay: Platelet aggregation (lumiaggregometry); assay type: cell-based
Method: Aggregation by platelets stir red (1000 rpm) at 37° C. was assayed using the Chrono-Log Lumiaggregometer. Antibody mAb3-758, mAb10-758 or mAb15-758 were added to 250 μL of 2×10^8 GFP/mL, in platelet buffer containing 2 mM CaCl, in the absence or presence of 20 μM ADP followed by the addition of 200 μg/mL fibrinogen. In some experiments PGE1, apyrase and PGI2 were included as activation inhibitors. Changes in light transmittance were recorded and transferred to Microsoft Excel for data plotting. For the determination of EC50 and IC50 of mAb3-758 and mAb10-758, respectively, control aggregations Pusing ADP alone were performed with each set of concentrations tested.

[3] = biological target: T2, purified human platelet αIIbβ3 (Homo sapiens, UniProt P05106+P08514); assay: Disassociation constants of GP IIb/IIIa antagonists on purified human αIIbβ3; assay type: binding
T2 construct: detergent solubilized platelet lysates were passed over a Concanavalin A-Sepharose 4B column; from tissue; host or cells: human platelets (given as outdated human plasma; platelet lysates)
T2 sequence (P08514 32-887 limits assumed): as the sequence (P08514 32-887 limits assumed) above
T2 sequence (P08514 891-1039 partner limits assumed): as the sequence (P08514 891-1039 partner limits assumed) above
T2 sequence (P05106 27-788): as the sequence (P05106 27-788) above
Method: GPIIb/IIIa was purified from outdated human plasma using a slight modification of the procedure described by Kouns et al. (Kouns et al. (1992) J. Biol. Chem. 267, 18844-18851). Briefly, detergent solubilized platelet lysates were passed over a Concanavalin A-Sepharose 4B column (Sigma Chemicals, St. Louis, Mo.), followed by elution with methyl-α-D mannopyranozide (Sigma Chemical, St. Louis, Mo.). […] All fractions were analyzed for purity by SDS-PAGE electrophoresis.

[4] = biological target: T3, GPIIb/IIIa on gel filtered platelets (Homo sapiens, UniProt P05106+P08514); assay: Flow cytometry binding assay on platelets: effect of receptor occupancy or ADP activation on antibody binding; details: GFP pretreated with 1 μM ligand, 100 nM antibody
T3 construct: Gel filtered platelets (GFP) were prepared from blood anticoagulated with 13 mM trisodium citrate; endogenous in cells; host or cells: gel filtered platelets from citrated blood
T3 sequence (P08514 32-887 limits assumed): as the sequence (P08514 32-887 limits assumed) above
T3 sequence (P08514 891-1039 partner limits assumed): as the sequence (P08514 891-1039 partner limits assumed) above
T3 sequence (P05106 27-788): as the sequence (P05106 27-788) above
Method: The platelet bound antibodies were separated from free antibodies by centrifugation in the presence of 100 μM PGE1 followed by resuspension in flow cytometry buffer containing 100 nM of FITC conjugated goat anti-mouse antibody, incubated for 1 hour at room temperature and analyzed using flow cytometry. The light scatter and fluorescence intensity of 20000 cells was collected using logarithmic gain.

[5] = activated form of purified human αIIbβ3, read-out: Activated Form KD-A
[6] = unactivated form of purified human αIIbβ3, read-out: Unactivated Form KD-B
[7] = Activated Form KD-A, activated form of purified human αIIbβ3
[8] = Unactivated Form KD-B, unactivated form of purified human αIIbβ3

Q: How did the “PAC-1 binding after pretreatment with activation inhibitors” value [1] turn out when `Nc1ncnc2c1ncn2[C@@H]1O[C@H](COP(=O)(O)OP(=O)(O)O)[C@@H](O)[C@H]1O` [ADP] was run?
A: completely blocked

Q: And the “platelet aggregation response stimulated by the substance alone” value ([2]; 100 nM mAb10-758, 1 μM mAb15-758, 20 μM ADP, control platelets)?
A: 69.6%

Q: And the “aggregation response following incubation with fibrinogen receptor antagonist” value ([2]; 10 μM of antagonist)?
A: 2.5%

Q: What about the EC50 ([2]; GFP with fibrinogen, read-out: EC50 ADP stimulated platelet aggregation) of the same compound?
A: 1700 nM

Q: And the “aggregation response of platelets pretreated with activation inhibitors” value ([2]; mixture of PGE1, PGI2 and apyrase, 100 nM mAb10-758, 1 μM mAb15-758)?
A: 3.3%

Q: What about the “aggregation response in control platelets of the antagonist experiment” value ([2]; no antagonist) of the same compound?
A: 69.6%

Q: What does the source list for `O=C(O)COc1ccc2c(c1)CN(C(=O)c1ccc(N3CCNCC3)cc1)CC2` [compound A, 4-(N-piperazine)benzoyl-(N-1,2,3,4-tetrahydroisoquinoline-7-yl)oxy-acetic acid]?
A: Kd [3, 5]: > 100000 nM; Kd [3, 6]: > 100000 nM

Q: How did the Kd [3, 7] turn out when `N=C(N)NCCC[C@@H]1NC(=O)[C@@H]2CCCN2C(=O)[C@H](CC(N)=O)NC(=O)[C@@H](NC(=O)c2ccc(I)cc2)CSSC[C@@H](C(=O)O)NC(=O)[C@H](CC(=O)O)NC(=O)CNC1=O` [compound B, cyclo-4-I-benzoyl-(Cys-Asn-Pro-Arg-Gly-Asp-Cys)-OH HOAc salt] ({Benzoyl(4-I)}-CNPRGDC-OH; disulfide 1-7 (inferred)) was run?
A: 1.5 nM

Q: What about the Kd [3, 8] of the same compound?
A: 60 nM

Q: For `O=C(NC[C@H](NS(=O)(=O)c1cccnc1)C(=O)O)c1cc2cc(CCC3CCNCC3)sc2s1` [compound D, 2-(S)-(3-pyridylsulfonyl)amino-3-N-[5-[2-(4-piperidinyl)ethyl]-thienothiophene-2-carboxamide]propionic acid], which Kd [3, 5] is on record?
A: 0.03 nM

Q: And the Kd [3, 6]?
A: 2.4 nM

Q: Which Kd [3, 7] does the source give for “ECESGPCCRNCKFLKEGTICKRARGDDMDDYCNGKTCDCPRNPHKGPAT (disulfide 2-11, 7-32, 8-37, 20-39 (inferred)) [echistatin]” here?
A: 4.6 nM

Q: And the Kd [3, 8]?
A: 4.9 nM

Q: Which results are given for `C[C@H](CC(=O)O)NC(=O)CN1CCC[C@@H](CCC2CCNCC2)C1=O` [compound C, N-[3(R)-[2-(Piperidin-4-yl)ethyl]-2-piperidon-1-yl] acetyl-3(R)-methyl-β-alanine]?
A: Kd [3, 5]: 4.5 nM; Kd [3, 6]: 610 nM

Q: Which results are given for `N=C(N)c1ccc(C(=O)NC(Cc2ccc(O)cc2)C(=O)N2CCC(OCC(=O)O)CC2)cc1` (stereo not shown) [RO-44-9883, {1-[2-(4-carbamimidoyl-benzoylamino)3-(4-hydroxy-phenyl)propionyl]-piperidin-4-yloxy}-acetic acid]?
A: induction of the neo-epitope recognized by anti-LIBS mAb10-758 and mAb15-758 [4]: induced; also recorded: induce the neo-epitope; Kd [3, 5]: 0.96 nM; Kd [3, 6]: 6.3 nM
